The record followed here is PMC2568955, “Structures of SRP54 and SRP19, the Two Proteins that Organize the Ribonucleic Core of the Signal Recognition Particle from Pyrococcus furiosus” (PLoS ONE, 2008).

The target of this assay is T1, Pfu-SRP54 (Pyrococcus furiosus, UniProt Q8U070).
T1 construct: full-length, pET28b, thrombin-cleavable His6 tag removed, E. coli BL21(DE3)-Rosetta2; free of SRP RNA and SRP19; two monomers per asymmetric unit (non-crystallographic dimer); finger loop L346-I365 disordered
T1 sequence (Q8U070 1-443): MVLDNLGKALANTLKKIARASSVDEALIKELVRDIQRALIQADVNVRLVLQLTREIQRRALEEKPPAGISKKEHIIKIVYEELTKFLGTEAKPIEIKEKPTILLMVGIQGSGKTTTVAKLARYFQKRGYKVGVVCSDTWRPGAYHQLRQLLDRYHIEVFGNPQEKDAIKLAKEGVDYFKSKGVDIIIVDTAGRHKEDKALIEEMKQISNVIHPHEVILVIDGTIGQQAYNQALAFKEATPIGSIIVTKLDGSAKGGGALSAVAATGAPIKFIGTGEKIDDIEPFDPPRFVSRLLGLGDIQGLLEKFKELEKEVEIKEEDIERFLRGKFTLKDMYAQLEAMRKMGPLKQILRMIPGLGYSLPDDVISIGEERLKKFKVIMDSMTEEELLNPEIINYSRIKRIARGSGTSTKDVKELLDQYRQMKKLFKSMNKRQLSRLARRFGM
The assay can be described thus: X-ray crystal structure, […] Å. The format is binding. The conditions noted are these: co-crystallised with 10 mM GDP; 1.0-1.3 M lithium sulfate, 100 mM sodium acetate pH 5.0; room temperature; GTPase active site in G domain, no clear Mg ion.

As for `Nc1nc2c(ncn2[C@@H]2O[C@H](COP(=O)(O)OP(=O)(O)O)[C@@H](O)[C@H]2O)c(=O)[nH]1` [GDP], the “X-ray crystal structure, 2.5 Å” value is “Pfu-SRP54 was co-crystallized in presence of GDP, and the nucleotide is clearly identified”.
